From patent US20250128203A1, “MODIFIED REDOX-ACTIVE SORBENTS FOR ELECTROCHEMICAL CARBON DIOXIDE SEPARATION” (The Johns Hopkins University, priority 2023, published 2025)
In brackets after ≈: the same amount, converted by molar mass. Several values for one entry are separate records, joined by “and”; a condition that tells them apart may be missing. Identical values can stand only once.

Tests used:
[1] = Cyclic voltammetry of isoindigos in DMF (half-wave redox potentials under N2 or CO2); type: physicochemical; conditions: for E1/2 in N2 (first): first half-wave potential vs. Fc^+/Fc; for E1/2 in N2 (first) / E1/2 in N2 (second): 0.1 M NBu4PF6, N2, 298 K; for E1/2 in N2 (second): second half-wave potential vs. Fc^+/Fc; for E1/2 in CO2 (first or single) / Experimental 1st half-wave potential in N2: vs. Fc^+/Fc; for E1/2 in CO2 (first or single): 0.1 M NBu4PF6, CO2, 298 K; for E1/2 (IId/IId·−) in N2: Table 1, first electron transfer, N2, DMF; for Experimental 1st half-wave potential in N2: Table 5
Experimental: (§1) Electrochemical measurements were conducted using a BioLogic VSP potentiostat (BioLogic Science Instruments). For the cyclic voltammetry measurements, glassy carbon (Ø=3 mm) was used as the working electrode, platinum wire was used as the counter electrode, silver wire was used as the pseudo-reference electrode and ferrocene was used as the internal reference. In a standard cyclic voltammetry measurement, the molecule of interest (2.5 mM) was dissolved in anhydrous DMF with 100 mM NBu4PF6 as the supporting salt. Typical cyclic voltammograms were collected at a scan rate of […]. To study the effects of ionic species on the redox behaviour of the sorbent molecules, 100 mM LiClO4, NaClO4, KClO4, NBu4ClO4, sodium triflate (NaOTf), or sodium bis(trifluoromethanesulfonyl)imide (NaTFSI) was used as the supporting electrolyte salt.

[2] = CO2 binding constant (KCO2) calculated from the shift of the second reduction peak in CV; conditions: for K[CO2] / logK[CO2]: DMF; for ΔEpeak(2): difference between the second reduction peak potentials (IId·−/IId2−) in CO2 and N2
Experimental: as §1
The CO2 binding constant (KCO2) was calculated by Eq 1: […]

[3] = UV-vis absorption, optical band gap; type: physicochemical; conditions: UV-vis absorption (Kubelka-Munk spectra)
Experimental: UV-vis absorption spectra were recorded on a Thermo Scientific Genesys 10S UV-vis spectrophotometer.

Solubility in DMF = type: physicochemical; conditions: for solubility: organic solvent or mixture
[4] = Flow-based EMCC prototype, cyclic CO2 capture/release
Experimental: In a typical experiment, the sorbent tank (20 mL scintillation vial with septum cap) was continuously bubbled with CO2 feed gas (balanced by N2) with the flow rate controlled by a mass flow controller (Alicat). For testing under simulated flue gas conditions, a gas mixture of 10% CO2+3% O2 balanced by N2 was used. An infrared-based CO2 sensor (SprintIR-W 100%) was connected at the gas exit to monitor the CO2 concentration continuously. The tank headspace was filled with plastic beads (McMaster-Carr) to limit the mixing time in the headspace. The Fc tank was kept air free. A two-channel peristaltic pump (Masterflex) circulated the sorbent and the Fc electrolyte to a commercial flow cell (Scribner) at a flow rate of 10 mL min^−1. The flow cell utilised graphite plates with 5 cm^2 interdigitated flow fields pressed against two pieces of carbon paper electrodes (Sigracet 28 AA) at each side of the graphite electrodes to distribute the liquid flow. A Nafion™ 115 membrane was sandwiched by two pieces of polypropylene and placed between the carbon paper electrodes. The cell was kept sealed by Kalrez fluoropolymer elastomer gaskets (0.02 inches thick). CO2 capture was conducted in a constant current mode while the release was carried out following a constant current/constant voltage protocol (that is, oxidizing the adduct at a constant current until a specific cut-off voltage followed by a constant voltage hold (the cut-off current for the constant voltage hold was 5% of the value used in the constant current oxidation). The cycling protocols of each experiment are provided in the corresponding figure captions.
For experiments using 6MCIId sorbent, we added 10 mM 6MCIId and 4 mM ferrocenium tetrafluoroboronate (FcBF4) into the CE tank to mitigate sorbent crossover and facilitate the reduction of the oxidised ferrocenium in the counter electrolyte, respectively. For less soluble 55DBIId and 66DBIId, the sorbent was dispersed in DMAc to form a slurry catholyte.

[5] = Chronoamperometry: reaction rate constant between isoindigo radical anion and CO2; conditions: isoindigo 5 mM in DMF, 0.1 M NBu4PF6; for kbimolecular: first CO2 binding; for kf (20% CO2): forward rate constant
From the text: In electrochemistry, the Cottrell equation describes the current response (i) when the potential is a step function in time (t):
where i is current, n is the number of electrons transferred per molecule, A is the area of the electrode, C*0 is the bulk concentration of the redox-active isoindigo molecule, D is the diffusion coefficient, and t is time. The expected current for a diffusion limited electrochemical process following an ECE (electron transfer, chemical reaction, electron transfer) mechanism at a plane electrode under diffusion-controlled conditions is:
where n1 and n2 are the number of electrons transferred in the first and second step, respectively, and kf is the forward reaction rate constant of the chemical reaction. Here, to calculate kf after the first electron transfer, n2 and n1 are set to 1. Eq 3 then becomes:
The integrated Cottrell equation relates total charge Q with time for chronoamperometry: […]
Then, the constant k can be calculated, here k is assumed constant:
To calculate kf, the constant k is calculated using Eq 5 using potentiostatic measurements. Plugging in Eq 6, and rearranging Eq 4 gives:
The data for determining kf is shown in FIGS. 22 to 25 using 5 mM sorbent molecules in 0.1 M NBu4PF6 DMF electrolyte. The value k was determined using data under N2; kf was obtained under 1 bar 20% CO2 (0.0396 M CO2 in solution).

[6] = test system: NIH3T3/GFP mouse fibroblasts; assay: alamarBlue cytotoxicity assay; type: cell-based; conditions: concentrations up to 100 µg mL^−1, 48 h
Experimental: (§2) NIH3T3/GFP fibroblast cell line was kindly provided by Dr. Yun Chen at Johns Hopkins University and cultured in Dulbecco's Modified Eagle's Medium (DMEM; Gibco) supplemented with 10% fetal bovine serum (FBS; Hyclone) and 1% penicillin/streptomycin (Pen/Strep; Gibco). U2OS.EGFP cells were kindly provided by Dr. J Keith Joung at Massachusetts General Hospital and cultured in DMEM supplemented with 10% FBS, 2 mM GlutaMAX (Gibco), and 1% Pen/Strep. MCF10A epithelial cell line was kindly provided by Dr. Konstantinos Konstantopoulos at Johns Hopkins University and cultured in DMEM/F-12 (1:1) supplemented with 5% New Zealand horse serum (Gibco), 20 ng mL^−1 EGF (PeproTech), […] hydrocortisone (Sigma Aldrich), 100 ng mL^−1 cholera toxin (Sigma Aldrich), […] insulin (Gibco), and 1% Pen/Strep. All cells were cultured in a humidified incubator at 5% CO2 and 37° C.
(§3) Cell cytotoxicity was examined by alamarBlue HS Cell Viability Reagent (Invitrogen) according to manufacturer's protocol. Rampersad, 2012; Kumar et al., 2018. […] Absorbance was measured at 570 nm by a SpectraMax microplate reader, with 600 nm as a reference wavelength. The cell viability was calculated by relative absorbance to control groups. […] Cell morphology was monitored throughout the assay and images were acquired with an EVOS cell imaging system (Thermo Fisher).

[7] = test system: U2OS.EGFP human osteosarcoma cells; assay: alamarBlue cytotoxicity assay; type: cell-based; conditions: concentrations up to 100 µg mL^−1, 48 h
Experimental: as §2, §3

[8] = test system: MCF10A human breast epithelial cells; assay: alamarBlue cytotoxicity assay; type: cell-based; parameters: unit not given here; conditions: 48 h cell culture
Experimental: as §2, §3

mammalian cells = assay: Cytotoxicity test and cell morphology, different mammalian cells; type: cell-based; parameters: dose or concentration left out as unconfirmed
Experimental: as §2, §3

Molecule | E1/2 in N2 (first) ([1]; 2.5 mM in DMF) | E1/2 in N2 (second) ([1]; 2.5 mM in DMF) [V] | E1/2 in CO2 (first or single) ([1]; 2.5 mM in DMF) [V] | K[CO2] ([2]; 298 K) [M⁻¹] | logK[CO2] ([2]; 298 K) | ΔEpeak(2) [2] [V] | Optical band gap [3] [eV] | Solubility in DMF (Solubility in DMF) [mM] | E1/2 (IId/IId·−) in N2 [1] [V vs. Fc^+/Fc] | Experimental 1st half-wave potential in N2 [1] [V] | logK[CO2] ([2]; Table 1) | kbimolecular [5] [M⁻¹ s⁻¹] | kf (20% CO2) [5] [s⁻¹] | solubility (Solubility in DMF) [mM] | other results
COC(=O)C(CO)NC(=O)c1ccc2c(c1)NC(=O)/C2=C1/C(=O)Nc2cc(Br)ccc21 (stereo not shown) [6B6AIIdSer, Methyl 6-bromoisoindigo-6′-carbonylserinate] | −1.11, V | −1.55 | −1.11 | 5.41e+08 | 8.73 | 0.475 | 2.03 | 568 (≈ 276 mg/mL) |  |  |  |  |  |  | Cycling stability ([4]; more than 40 cycles and approximately 200 hours of operation): negligible voltage decay
O=C1Nc2cc(Br)ccc2/C1=C1\C(=O)Nc2cc(Br)ccc21 [66DBIId, 6,6′-Dibromoisoindigo] |  | −1.67 | −1.12 | 38800 | 9.59 | 0.525 | 2.06 |  | −1.14 | −1.14 | 9.59 | 18.64 | 0.738 |  | Sorbent recovered from the sorbent electrolyte after cycling ([4]; after 11 capture/release cycles over 50+ hours): 87%; Sorbent isomerized into cis-isomer after cycling ([4]; after 11 capture/release cycles over 50+ hours, 1H NMR): approximately 24%
Methyl isoindigo-6-carbonylserinate [6AIIdSer] |  |  |  |  |  |  |  |  |  |  |  |  |  |  | Toxicity [6]: does not display clear toxicity; Toxicity [7]: does not display clear toxicity; LC50 (lethal concentration that causes 50% cell death) [8]: 89.4
COC(=O)C(CO)NC(=O)c1ccc2c(c1)NC(=O)/C2=C1/C(=O)Nc2ccccc21 (stereo not shown) [6AIIdSer, Methyl isoindigo-6-carbonylserinate] | −1.18, V | −1.60 | −1.08 | 2.57e+08 | 8.41 | 0.46 | 2.04 | 830 (≈ 338 mg/mL) |  |  |  |  |  |  | Biocompatibility compared with unmodified counterpart (mammalian cells; 0.78 to 100, 48 h): much better biocompatibility; Cell condition in optical microscopic images, compared with IId (mammalian cells; 50, 48 h culture): cells remained much healthier
O=C1Nc2ccccc2/C1=C1\C(=O)Nc2ccccc21 [IId, Isoindigo] | −1.29 V and −1.29, V | −1.79 | −1.21 | 2.19e+09 | 9.34 | 0.511 | 2.04 |  | −1.29 | −1.29 | 9.34 |  |  | ~230 (≈ 60.3 mg/mL) | 
COC(=O)c1ccc2c(c1)NC(=O)/C2=C1/C(=O)Nc2ccccc21 [6MCIId, Methyl isoindigo-6-carboxylate] | −1.12, V | −1.62 | −1.09 | 7.78e+08 | 8.89 | 0.484 | 2.03 |  | −1.12 |  | 8.89 | 22.45 | 0.889 | 515 (≈ 165 mg/mL) | 
COC(=O)CNC(=O)c1ccc2c(c1)NC(=O)/C2=C1/C(=O)Nc2ccccc21 [6AIIdGly, Methyl isoindigo-6-carbonylglycinate] | −1.17, V | −1.62 | −1.08 | 4.3e+08 | 8.63 | 0.469 | 2.04 | 606 (≈ 229 mg/mL) |  |  |  | 19.85 | 0.786 |  | 
COC(=O)c1ccc2c(c1)NC(=O)/C2=C1/C(=O)Nc2cc(C(=O)OC)ccc21 [66DMCIId, Dimethyl isoindigo-6,6′-dicarboxylate] | −0.97, V | −1.41 | −0.91 | 1.17e+08 | 8.07 | 0.435 | 2.02 | <2.5 |  |  |  |  |  | < 2.5 | Positive shift of E1/2 under CO2 compared to unmodified IId ([1]; under CO2, DMF): 300 mV
O=C1Nc2ccc(Br)cc2/C1=C1\C(=O)Nc2ccc(Br)cc21 [55DBIId, 5,5′-Dibromoisoindigo] | −1.09 V and −1.09, V | −1.61 | −1.09 | 2.16e+09 | 9.33 | 0.510 | 1.99 |  | −1.09 | −1.09 | 9.33 |  |  | 6.3 (≈ 2.65 mg/mL) | CO2 release at approximately −1 V vs. Fc^+/Fc in the presence of water ([1]; 10 vol % water): gets suppressed; Electrochemical behaviours in the presence of O2 ([1]; up to 16% CO2 and 20% O2, 2.5 mM in DMF, 0.1 M NBu4PF6): remained almost unaffected
